Consider eight compounds from ChEMBL document CHEMBL1145164, “2-Acetylamino-3-[4-(2-acetylamino-2-carboxyethylsulfanylcarbonylamino)- phenylcarbamoylsulfanyl]propionic acid and its derivatives as a novel class of glutathione reductase inhibitors” (J Med Chem, 2005).

Broadly, the IC50 is the concentration that gives 50% inhibition. For orientation: inhibition means the share of the control response that was lost under treatment. A higher inhibition goes with strong suppression. For orientation: Ki means the dissociation constant of the complex between target and ligand, obtained from inhibition or displacement. Higher therefore signals weaker binding.

In assay [1] the target is T1, Glutathione reductase (Saccharomyces cerevisiae S288c, UniProt P41921).
T1 sequence (P41921 whole entry): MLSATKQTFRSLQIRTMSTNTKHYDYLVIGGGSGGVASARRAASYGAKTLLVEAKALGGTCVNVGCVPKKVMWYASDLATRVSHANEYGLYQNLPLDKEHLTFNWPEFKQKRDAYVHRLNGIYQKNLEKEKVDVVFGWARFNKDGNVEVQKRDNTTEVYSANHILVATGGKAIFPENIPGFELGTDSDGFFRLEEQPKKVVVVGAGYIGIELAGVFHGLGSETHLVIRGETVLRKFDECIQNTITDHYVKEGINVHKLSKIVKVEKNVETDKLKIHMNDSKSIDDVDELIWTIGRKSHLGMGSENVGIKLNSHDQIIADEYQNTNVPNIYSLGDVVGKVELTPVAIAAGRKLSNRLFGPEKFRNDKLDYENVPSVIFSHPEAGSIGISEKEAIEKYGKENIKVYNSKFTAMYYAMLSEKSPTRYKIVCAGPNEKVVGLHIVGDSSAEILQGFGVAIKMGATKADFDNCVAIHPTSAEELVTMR
As to the kind of experiment: Inhibition of yeast glutathione reductase over 30 minutes pH 7.4 at 25 degree C.

Assay [2] has as its target T2, Glutathione reductase (Saccharomyces cerevisiae S288c) (UniProt P41921).
T2 sequence (whole entry): T1 sequence (P41921 whole entry)
Description: Kinact value for yeast glutathione reductase

The target in assay [3] is T3, Glutathione S-transferase A1 (Homo sapiens) (UniProt P08263).
T3 sequence (whole entry): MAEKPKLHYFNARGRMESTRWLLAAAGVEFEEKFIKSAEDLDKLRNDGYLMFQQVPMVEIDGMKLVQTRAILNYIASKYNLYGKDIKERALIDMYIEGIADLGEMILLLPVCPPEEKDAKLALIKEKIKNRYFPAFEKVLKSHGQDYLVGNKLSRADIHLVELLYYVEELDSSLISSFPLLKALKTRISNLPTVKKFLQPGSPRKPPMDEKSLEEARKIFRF
As to the kind of experiment: Inhibitory activity of compound against glutathione S-transferase. The conditions noted are these: concentration not given here.

Assay [4] addresses T1, Glutathione reductase. Description: Inhibition of yeast glutathione reductase done for 30 minutes in pH 7.4 at 25 degree C with compound (0.2 mM).
Assay [5] addresses T1, Glutathione reductase. As to the kind of experiment: Inhibition of yeast glutathione reductase for 30 minutes pH 7.4 at 25 degree C at 0.2 mM.

Consider `CC(=O)NC(CSC(=O)NCCCCNC(=O)SCC(NC(C)=O)C(=O)O)C(=O)O` (stereo unspecified), for which, on Glutathione reductase [1], the half-maximal inhibitory concentration (IC50) came to 515 µM.
As to `CC(=O)NC(CSC(=O)NC1CCC(CC2CCC(NC(=O)SCC(NC(C)=O)C(=O)O)CC2)CC1)C(=O)O` (stereo unspecified), half-maximal inhibition on Glutathione reductase [1] (IC50) required 477 µM.
The same measure, in the same setting: the value for `CC(=O)NC(CSC(=O)Nc1cccc(NC(=O)SCC(NC(C)=O)C(=O)O)c1)C(=O)O` (stereo unspecified) was 149 µM.
In turn, `CC(=O)NC(CSC(=O)Nc1ccc(NC(=O)SCC(NC(C)=O)C(=O)O)cc1)C(=O)O` (stereo unspecified) showed a Kinact in assay [2] of 0.1 min⁻¹. Also, the inhibition in assay [3] was found to be 13%. Moreover, the IC50 on Glutathione reductase [4] amounted to 50 µM. In addition, the Ki at Glutathione reductase [5] was found to be 88 µM.
As for `CC(=O)NC(CSC(=O)NCc1ccc(NC(=O)SCC(NC(C)=O)C(=O)O)cc1)C(=O)O` (stereo unspecified), at Glutathione reductase [1], the IC50 was 117 µM.
On Glutathione reductase [1], `O=NN(CCCl)C(=O)NCCCl` [CARMUSTINE] returned an IC50 of 441 µM.
In the case of `CC(=O)NC(CSC(=O)NCCCCCCNC(=O)SCC(NC(C)=O)C(=O)O)C(=O)O` (stereo unspecified), on Glutathione reductase [1], half-maximal inhibition (IC50) required 455 µM.
At Glutathione reductase [1], `CC(=O)NC(CSC(=O)Nc1ccc(Cc2ccc(NC(=O)SCC(NC(C)=O)C(=O)O)cc2)cc1)C(=O)O` (stereo unspecified) yielded an IC50 of 85 µM.
